Entries after “also recorded” stand apart in the source; their conditions may differ.
Legend:
[1] = Osmolality of sugar and sugar alcohol solutions (osmometer); assay type: physicochemical; details: 500 mM in water
Experimental: The sugar and sugar alcohol solutions used as osmoprotectant supplements were prepared at 500 mM in water and their osmolalities were measured using Osmometer (Multi-somotte, Model 2430, Precision Systems Inc, MA, USA). The osmolality of solution was directly proportional to the concentration of component in solution. For instance there was a linear relationship between sorbitol concentration (mM) and osmolality of the solution (mOsm/kg) as shown in FIG. 1A. The osmolalities of maltitol, sorbitol, glycerol, and glucose at 500 mM in water were 590±4, 544±3, 541±3, and 568±0 mOsm/kg respectively (FIG. 1B). The osmolaties of sorbose, mellibiose, ribose, quinic acid and myo-inositol at 500 Mm in water were (480±5), (500±5), (470±5), (480±5) AND (510±10), respectively.

[2] = tested on: P. pastoris YGLY 21058 strain; assay: Fermentability of sorbitol and maltitol determined by HPLC; assay type: cell-based, Pichia pastoris; details: BSGY; maltitol 50 g/L; methanol induction phase
Experimental: The P. pastoris YGLY 21058 strain was cultivated in 1 L bioreactor and 50 g/L of maltitol was mixed in BSGY medium. The samples were taken at the beginning of fermentation, at the end of glycerol fed-batch before adding maltitol, and two different time-points in methanol induction phase, as shown in FIG. 3. The supernatant was separated by the centrifugation at 13,000 rpm for 1 minutes using micro-centrifuge. The samples properly diluted with distilled water were filtered using 0.2 μm-filter and the residual concentrations of sorbitol and maltitol were determined by HPLC using AMINEX HPX-87H column. The residence times (RTs) for sorbitol and maltitol were 11.5 and 9.3 min respectively. The data were shown in FIG. 3 as two independent runs of cultivation.

[3] = tested on: P. pastoris strain (YGLY27893) which produces an antibody Fc-fragment; assay: Effect of maltitol with or without sorbitol on cell robustness; assay type: cell-based, Pichia pastoris; details: BSGY medium with maltitol 50 g/L
Experimental: Using a P. pastoris strain (YGLY27893) which produces an antibody Fc-fragment, the osmoprotective effect of combining sorbitol and maltitol was tested as follows: sorbitol(−) maltitol(−); sorbito(+) maltitol(−); […] maltito(+). The concentrations of sorbitol and maltitol were 18 g/L and 50 g/L respectivetly. (Note: Sorbitol(+) maltito(−) is identical to BSGY medium).
The cell growth was expressed as [Cell (t)]/[Cell (0)]×100(%), here, [Cell (t)] is the wet cell weight at t (h) of induction and [Cell (0)] is the wet cell weight at 0 (h) of induction, because the cell density at the beginning of induction in each case was different due to absence or presence of sorbitol as a fermentable sugar. The cell was heavily lysed around 80 h of induction in BSGY medium without maltitol, whereas the cell was continuously grown for 150 h of induction in BSGY medium with maltitol (FIG. 4). I re-draw the FIG. 4 as shown in the last page (p 47 after FIG. 5).

For `OC[C@@H](O)[C@@H](O[C@H]1O[C@H](CO)[C@@H](O)[C@H](O)[C@H]1O)[C@H](O)[C@@H](O)CO` [Maltitol, 4-O-α-glucopyranosyl-D-sorbitol], the Osmolality of solution [1] was 590±4 mOsm/kg, the “Consumption / fermentability in fed-batch fermentation (residual concentration by HPLC)” value [2] was “not consumed; also recorded: non-fermentable” and the “Time of continuous cell growth in induction” value [3] was 150 h.
